Results from US20230271964A1, “5-AMINO-8-(4-PYRIDYL)-[1,2,4]TRIAZOLO[4,3-C]PYRIMIDIN-3-ONE COMPOUNDS FOR USE AGAINST CANCER” (ASTRAZENECA AB, priority 2020, published 2023).

How the values were obtained:
[1] = biological target: human adenosine A2A receptor (Homo sapiens (Human), UniProt P29274); experiment: Adenosine receptor inhibition binding assay, [3H]ZM241385, HEK293 A2A receptor membranes; conditions: 1 nM [3H]ZM241385, HEK293-hA2A membranes, 25° C., 1 h, Ki from IC50 by Cheng-Prusoff
Method: (§1) Inhibition binding assays were performed using 0.2 µg of membranes prepared from HEK293 cells infected with BacMam human adenosine A2A receptor or 1.4 µg of membranes prepared from HEK293 cells infected with BacMam human adenosine A1 receptor. Membranes were incubated in 50 mM Tris-HCl (HEK293-hA2A; pH 7.4) or 50 mM Tris-HCl, 100 mM NaCl, 10 mM MgCl2 (CHO-hA1; pH 7.4) in the presence of varying concentrations of test compound and 1 nM [^3H]ZM241385 (HEK293-hA2A) or [^3H]DPCPX (CHO-hA1) at 25° C. for 1 h. The assay was then terminated by rapid filtration onto GF/B grade Unifilter plates using a TomTec cell harvester, followed by 5 × 0.5 ml washes with ddH2O. Nonspecific binding was defined in the presence of 1 µM CGS 15943 (HEK293-hA2A) or 1 µM DPCPX (CHO-hA1). Bound radioactivity was determined by liquid scintillation counting and inhibition curves were analysed using a four-parameter logistic equation. IC50 values were converted to Ki values with the Cheng-Prusoff equation using a KD value derived from saturation binding studies.

[2] = biological target: human adenosine A1 receptor (Homo sapiens (Human), UniProt P30542); experiment: Adenosine receptor inhibition binding assay, [3H]DPCPX, A1 receptor membranes; conditions: 1 nM [3H]DPCPX, 25° C., 1 h, Ki from IC50 by Cheng-Prusoff
Method: as §1

Sequence of human adenosine A1 receptor (P30542 whole entry): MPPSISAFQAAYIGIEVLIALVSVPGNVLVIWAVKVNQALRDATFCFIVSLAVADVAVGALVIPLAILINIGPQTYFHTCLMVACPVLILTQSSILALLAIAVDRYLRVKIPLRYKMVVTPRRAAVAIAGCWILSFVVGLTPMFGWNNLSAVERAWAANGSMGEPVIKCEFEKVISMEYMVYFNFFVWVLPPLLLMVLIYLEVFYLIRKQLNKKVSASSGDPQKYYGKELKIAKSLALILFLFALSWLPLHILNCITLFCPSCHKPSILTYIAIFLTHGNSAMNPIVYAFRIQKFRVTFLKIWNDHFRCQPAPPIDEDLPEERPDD
Sequence of human adenosine A2A receptor (P29274 whole entry): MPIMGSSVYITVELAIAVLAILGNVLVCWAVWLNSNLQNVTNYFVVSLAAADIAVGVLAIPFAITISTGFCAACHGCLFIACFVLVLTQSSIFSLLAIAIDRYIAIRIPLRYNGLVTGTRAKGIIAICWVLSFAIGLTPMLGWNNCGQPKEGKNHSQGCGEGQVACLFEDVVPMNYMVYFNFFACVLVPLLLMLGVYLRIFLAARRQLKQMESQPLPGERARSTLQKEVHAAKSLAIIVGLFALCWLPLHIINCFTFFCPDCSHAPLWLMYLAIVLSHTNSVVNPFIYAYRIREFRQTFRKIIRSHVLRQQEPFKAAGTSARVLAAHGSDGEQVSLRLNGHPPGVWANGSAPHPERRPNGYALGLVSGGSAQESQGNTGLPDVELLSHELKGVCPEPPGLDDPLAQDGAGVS

Compound | A2A pKi [1] | A1 pKi [2] | Ki ([1]; read-out: A2A pKi (converted)) [µM] | Ki ([2]; read-out: A1 pKi (converted)) [µM]
Cc1cc(-c2c(-c3ccccc3)nc(N)n3c(=O)n(C4CCN(C(=O)OC(C)(C)C)C4)nc23)cc(C)n1 (stereo not drawn) [Example 2-1, tert-butyl 3-[5-amino-8-(2,6-dimethyl-4-pyridyl)-3-oxo-7-phenyl-[1,2,4]triazolo[4,3-c]pyrimidin-2-yl]pyrrolidine-1-carboxylate] | 7.7 | 6.8 | – | –
Cc1cc(-c2c(-c3ccccc3)nc(N)n3c(=O)n(C4CCNC4)nc23)cc(C)n1 (stereo not drawn) [Example 2-2, 5-amino-8-(2,6-dimethyl-4-pyridyl)-7-phenyl-2-pyrrolidin-3-yl-[1,2,4]triazolo[4,3-c]pyrimidin-3-one] | 7.4 | 5.7 | – | –
Cc1cc(-c2c(-c3ccccc3)nc(N)n3c(=O)n(C4CCN(C)C4)nc23)cc(C)n1 (stereo not drawn) [Example 2-3, 5-amino-8-(2,6-dimethyl-4-pyridyl)-2-(1-methylpyrrolidin-3-yl)-7-phenyl-[1,2,4]triazolo[4,3-c]pyrimidin-3-one] | 7.8 | 6.1 | – | –
Cc1cc(-c2c(-c3ccccc3)nc(N)n3c(=O)n(CC4CCCN4C(=O)OC(C)(C)C)nc23)cc(C)n1 (stereo not drawn) [Example 2-4, tert-butyl 2-[[5-amino-8-(2,6-dimethyl-4-pyridyl)-3-oxo-7-phenyl-[1,2,4]triazolo[4,3-c]pyrimidin-2-yl]methyl]pyrrolidine-1-carboxylate] | 7.9 | 6.6 | – | –
Cc1cc(-c2c(-c3ccccc3)nc(N)n3c(=O)n(CC4CCCN4)nc23)cc(C)n1 (stereo not drawn) [Example 2-5, 5-amino-8-(2,6-dimethyl-4-pyridyl)-7-phenyl-2-(pyrrolidin-2-ylmethyl)-[1,2,4]triazolo[4,3-c]pyrimidin-3-one] | 7.4 | 6.1 | – | –
Cc1cc(-c2c(-c3ccccc3)nc(N)n3c(=O)n(CC4CCCN4C)nc23)cc(C)n1 (stereo not drawn) [Example 2-6, 5-amino-8-(2,6-dimethyl-4-pyridyl)-2-[(1-methylpyrrolidin-2-yl)methyl]-7-phenyl-[1,2,4]triazolo[4,3-c]pyrimidin-3-one] | 9.1 | 6.2 | – | –
Cc1cc(-c2c(-c3ccccc3)nc(N)n3c(=O)n(C[C@H]4CCCN4C)nc23)cc(C)n1 [Example 2-7, 5-amino-8-(2,6-dimethyl-4-pyridyl)-2-[[(2R)-1-methylpyrrolidin-2-yl]methyl]-7-phenyl-[1,2,4]triazolo[4,3-c]pyrimidin-3-one] | 9.3 | 7.4 | – | –
Cc1cc(-c2c(-c3ccccc3)nc(N)n3c(=O)n(C[C@@H]4CCCN4C)nc23)cc(C)n1 [Example 2-8, 5-amino-8-(2,6-dimethyl-4-pyridyl)-2-[[(2S)-1-methylpyrrolidin-2-yl]methyl]-7-phenyl-[1,2,4]triazolo[4,3-c]pyrimidin-3-one] | 9.0 | 6.8 | – | –
COCCN1CCC[C@H]1Cn1nc2c(-c3cc(C)nc(C)c3)c(-c3ccccc3)nc(N)n2c1=O [Example 2-9, 5-amino-8-(2,6-dimethyl-4-pyridyl)-2-[[(2S)-1-(2-methoxyethyl)pyrrolidin-2-yl]methyl]-7-phenyl-[1,2,4]triazolo[4,3-c]pyrimidin-3-one] | 8.4 | 6.1 | – | –
COCCN1CCC[C@@H]1Cn1nc2c(-c3cc(C)nc(C)c3)c(-c3ccccc3)nc(N)n2c1=O [Example 2-10, 5-amino-8-(2,6-dimethyl-4-pyridyl)-2-[[(2R)-1-(2-methoxyethyl)pyrrolidin-2-yl]methyl]-7-phenyl-[1,2,4]triazolo[4,3-c]pyrimidin-3-one] | 8.2 | 6.3 | – | –
Cc1cc(-c2c(-c3ccccc3)nc(N)n3c(=O)n(C[C@@H]4CC(F)(F)CN4)nc23)cc(C)n1 [Example 2-11, 5-amino-2-[[(2S)-4,4-difluoropyrrolidin-2-yl]methyl]-8-(2,6-dimethyl-4-pyridyl)-7-phenyl-[1,2,4]triazolo[4,3-c]pyrimidin-3-one] | 8.7 | 6.0 | – | –
Cc1cc(-c2c(-c3ccccc3)nc(N)n3c(=O)n(C[C@H]4CC(F)(F)CN4)nc23)cc(C)n1 [Example 2-12, 5-amino-2-[[(2R)-4,4-difluoropyrrolidin-2-yl]methyl]-8-(2,6-dimethyl-4-pyridyl)-7-phenyl-[1,2,4]triazolo[4,3-c]pyrimidin-3-one] | 8.1 | 6.4 | – | –
Cc1cc(-c2c(-c3ccccc3)nc(N)n3c(=O)n(C[C@@H]4CC(F)(F)CN4C)nc23)cc(C)n1 [Example 2-13, 5-amino-2-[[(2S)-4,4-difluoro-1-methyl-pyrrolidin-2-yl]methyl]-8-(2,6-dimethyl-4-pyridyl)-7-phenyl-[1,2,4]triazolo[4,3-c]pyrimidin-3-one] | 8.2 | 6.3 | – | –
Cc1cc(-c2c(-c3ccccc3)nc(N)n3c(=O)n(C[C@H]4CCCO4)nc23)cc(C)n1 [Example 2-16, 5-amino-8-(2,6-dimethyl-4-pyridyl)-7-phenyl-2-[[(2R)-tetrahydrofuran-2-yl]methyl]-[1,2,4]triazolo[4,3-c]pyrimidin-3-one] | 9.2 | 6.7 | – | –
Cc1cc(-c2c(-c3ccccc3)nc(N)n3c(=O)n(C[C@H]4C[C@H](F)CN4)nc23)cc(C)n1 [Example 2-18, 5-amino-8-(2,6-dimethyl-4-pyridyl)-2-[[(2R,4S)-4-fluoropyrrolidin-2-yl]methyl]-7-phenyl-[1,2,4]triazolo[4,3-c]pyrimidin-3-one] | 8.2 | 6.4 | – | –
Cc1cc(-c2c(-c3ccccc3)nc(N)n3c(=O)n(C[C@H]4C[C@@H](F)CN4)nc23)cc(C)n1 [Example 2-19, 5-amino-8-(2,6-dimethyl-4-pyridyl)-2-[[(2R,4R)-4-fluoropyrrolidin-2-yl]methyl]-7-phenyl-[1,2,4]triazolo[4,3-c]pyrimidin-3-one] | 8.0 | 6.2 | – | –
Cc1cc(-c2c(-c3ccccc3)nc(N)n3c(=O)n(C[C@@H]4C[C@H](F)CN4)nc23)cc(C)n1 [Example 2-20, 5-amino-8-(2,6-dimethyl-4-pyridyl)-2-[[(2S,4S)-4-fluoropyrrolidin-2-yl]methyl]-7-phenyl-[1,2,4]triazolo[4,3-c]pyrimidin-3-one] | 8.5 | 6.3 | – | –
Cc1cc(-c2c(-c3ccccc3)nc(N)n3c(=O)n(C[C@@H]4C[C@@H](F)CN4)nc23)cc(C)n1 [Example 2-21, 5-amino-8-(2,6-dimethyl-4-pyridyl)-2-[[(2S,4R)-4-fluoropyrrolidin-2-yl]methyl]-7-phenyl-[1,2,4]triazolo[4,3-c]pyrimidin-3-one] | 8.4 | 6.4 | – | –
Cc1cc(-c2c(-c3ccccc3)nc(N)n3c(=O)n(C[C@@H]4C[C@H](O)CN4)nc23)cc(C)n1 [Example 2-22, 5-amino-8-(2,6-dimethyl-4-pyridyl)-2-[[(2S,4S)-4-hydroxypyrrolidin-2-yl]methyl]-7-phenyl-[1,2,4]triazolo[4,3-c]pyrimidin-3-one] | 8.2 | 5.9 | – | –
Cc1cc(-c2c(-c3ccccc3)nc(N)n3c(=O)n(C[C@H]4C[C@@H](O)CN4)nc23)cc(C)n1 [Example 2-23, 5-amino-8-(2,6-dimethyl-4-pyridyl)-2-[[(2R,4R)-4-hydroxypyrrolidin-2-yl]methyl]-7-phenyl-[1,2,4]triazolo[4,3-c]pyrimidin-3-one] | 8.2 | 5.9 | – | –
Cc1cc(-c2c(-c3ccccc3)nc(N)n3c(=O)n(CCN4CCCC4)nc23)cc(C)n1 [Example 2-26, 5-amino-8-(2,6-dimethyl-4-pyridyl)-7-phenyl-2-(2-pyrrolidin-1-ylethyl)-[1,2,4]triazolo[4,3-c]pyrimidin-3-one] | 6.9 | <5.7 | – | –
COc1cc(-c2c(-c3ccccc3)nc(N)n3c(=O)n(C[C@H]4CCCO4)nc23)cc(C)n1 [Example 2-27, 5-amino-8-(2-methoxy-6-methyl-4-pyridyl)-7-phenyl-2-[[(2R)-tetrahydrofuran-2-yl]methyl]-[1,2,4]triazolo[4,3-c]pyrimidin-3one] | 9.6 | 6.7 | – | –
[2H]c1c([2H])c([2H])c(-c2nc(N)n3c(=O)n(C[C@H]4CCCO4)nc3c2-c2cc(C)nc(CO)c2)c([2H])c1[2H] [Example 2-30, 5-amino-8-[2-(hydroxymethyl)-6-methyl-4-pyridyl]-7-(2,3,4,5,6-pentadeuteriophenyl)-2-[[(2R)-tetrahydrofuran-2-yl]methyl]-[1,2,4]triazolo[4,3-c]pyrimidin-3-one] | – | – | 0.001 | 0.501
Cc1cc(-c2c(-c3ccc(F)cc3)nc(N)n3c(=O)n(C[C@H]4CCCO4)nc23)cc(CO)n1 [Example 2-31, 5-amino-7-(4-fluorophenyl)-8-[2-(hydroxymethyl)-6-methyl-4-pyridyl]-2-[[(2R)-tetrahydrofuran-2-yl]methyl]-[1,2,4]triazolo[4,3-c]pyrimidin-3-one] | 8.4 | 6.1 | – | –
